We go through 3 compounds from the NIST ThermoML archive (doi:10.1021/acs.jced.5b00298).

As usually defined, the mass density is mass per unit of volume.

This data set in a line: mn = molality of the nth substance listed, in mol/kg. Conditions: 298.15 K, 101 kPa, Liquid, Vibrating tube method.

Numbers after ± are expanded uncertainties.

Take `O=[N+]([O-])[O-].[Na+]` [sodium nitrate] + O: the mass density by setting is: (m1 = 0.02) 998.191 ± 0.075 kg/m3; (m1 = 0.1001) 1002.65 ± 0.075 kg/m3; (m1 = 0.4001) 1019.02 ± 0.082 kg/m3; (m1 = 0.8) 1040.02 ± 0.09 kg/m3; (m1 = 1.201) 1060.25 ± 0.098 kg/m3; (m1 = 1.602) 1079.67 ± 0.11 kg/m3.

In the case of `[Na+].[O-][Cl+3]([O-])([O-])[O-]` [sodium perchlorate] + O, the mass density reads like this: (m1 = 0.0201) 998.644 ± 0.078 kg/m3; (m1 = 0.1) 1004.82 ± 0.079 kg/m3; (m1 = 0.4001) 1027.27 ± 0.087 kg/m3; (m1 = 0.8002) 1055.68 ± 0.098 kg/m3; (m1 = 1.2) 1083.49 ± 0.11 kg/m3; (m1 = 1.6) 1111.93 ± 0.12 kg/m3.

For the compound `O=S(=O)([O-])[O-].[Na+].[Na+]` [sodium sulfate] + O, the mass density was 999.638 ± 0.087 kg/m3 (m1 = 0.0201); 1009.69 ± 0.089 kg/m3 (m1 = 0.1001); 1045.75 ± 0.1 kg/m3 (m1 = 0.4002); 1090.93 ± 0.12 kg/m3 (m1 = 0.8001); 1112.49 ± 0.13 kg/m3 (m1 = 1); 1133.41 ± 0.14 kg/m3 (m1 = 1.2).
